According to PMC5716539, “The acute glucose lowering effect of specific GPR120 activation in mice is mainly driven by glucagon-like peptide 1” (PLoS ONE, 2017):
Where two headings read alike, the source gives them in different places.

Experiments:
Caco-2 cells = tested on: Caco-2 cells; parameters: method as in PMID 26791484; conditions: cited from earlier work
mouse GPR40 = target: T1, mouse GPR40 (Mus musculus, UniProt Q76JU9); experiment: Calcium mobilization assay in HEK293-mGPR40 cells; assay type: cell-based; conditions: calcium mobilization
T1 construct: expressed in transfected cells
T1 sequence (Q76JU9 whole entry): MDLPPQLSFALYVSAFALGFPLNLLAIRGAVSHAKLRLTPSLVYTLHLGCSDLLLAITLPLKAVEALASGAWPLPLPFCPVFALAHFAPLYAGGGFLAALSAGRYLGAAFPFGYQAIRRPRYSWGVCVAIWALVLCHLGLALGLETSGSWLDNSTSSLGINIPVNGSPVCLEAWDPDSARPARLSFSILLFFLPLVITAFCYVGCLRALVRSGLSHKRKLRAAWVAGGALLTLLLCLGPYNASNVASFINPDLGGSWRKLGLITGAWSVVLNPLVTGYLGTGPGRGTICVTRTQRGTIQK
Experimental: CHO-hGPR120 and CHO cells were cultured in DMEM/F-12 (Invitrogen) with 10% FBS (Sigma) and HEK293-mGPR40 in DMEM (Invitrogen) supplemented with 10% FBS in 384-well poly-D-Lysin coated microplates (Greiner) at 37°C, 95% humidity and 5% CO2. After 19 hours cell media was replaced with Calcium4 dye (Molecular Devices) in HBSS (Invitrogen), 20 mM HEPES (Invitrogen), pH 7.4 and 1.25 mM Probenecid (Sigma). After 1 hour at room temperature agonists were added and calcium mobilization was detected as change in fluorescence (λex = 488 and λem = 540 nm) using a FLIPR^TETRA (Molecular Devices).

GPR120 [1] = tested on: GPR120; parameters: method as in PMID 24997608; conditions: read-out: EC50 in β-arrestin; cited from earlier work
GPR120 [2] = tested on: GPR120; parameters: method as in PMID 24997608; conditions: read-out: EC50 in calcium mobilization; cited from earlier work
lean female mice = experiment: Intravenous glucose tolerance test (IVGTT) in lean female mice; assay type: in vivo, mouse; conditions: 30 nmol/kg i.p. 15 min prior to IVGTT; trend towards lower response
Experimental: Lean female mice (body weight 20–25 g), were randomized on body weight and fasted 4 hours prior to the IVGTT. Metabolex-36 (100 mg/kg) was administered orally 60 min and AZ13581837 (35mg/kg) 30 min before the IVGTT ([…]). Control mice were given vehicle (0.5% HPMC, 0.1% Tween-80) at corresponding time points. The specificity of AZ13581837 was examined in IVGTT in GPR120 null mice. GPR120 agonist doses were selected to reach plasma levels of at least 10 times over the in vitro EC50 value to achieve maximal activation of GPR120 (S2 Appendix). Thirty minutes prior to the glucose load, the mice were anaesthetised (20 mg/kg fluanisone/0.8 mg/kg fentanyl (Hypnorm®, Janssen, Beerse, Belgium) and 10 mg/kg midazolam (Dormicum®, Hoffman-LaRoche, Basel, Switzerland)) to allow for rapid blood sampling. The mice were kept at a heating pad to maintain body temperature.
In separate experiments, mice were pretreated with the GLP-1 receptor antagonist exendin 9–39 (30 nmol/kg, Bachem; intraperitoneally) alone or in combination with the GPR120 agonists, 15 min prior to the IVGTT. Insulin and glucose were measured 0, 1, 5, 10, 20 and 40 min after intravenous (iv) glucose administration. In separate groups of mice total GLP-1 levels were measured 60 min after oral administration of Metabolex-36 or 30 min after AZ13581837 and in corresponding vehicle (0.5% HPMC, 0.1% Tween-80) dosed mice. Blood samples were collected in EDTA coated tubes, centrifuged at 10000xg for 4 min, and plasma was separated and stored frozen until analyzed.
In the IVGTT, the acute insulin response (AIR) was calculated as the mean of suprabasal 1 and 5 min values, and the glucose elimination was quantified using the glucose elimination constant (KG) calculated as the slope of the logarithmic transformation of circulating glucose between 1 and 20 min after the glucose bolus. Multiple comparisons between the different groups were performed by one-way ANOVA. Tukey’s or Bonferroni’s post hoc test were used to calculate statistical differences between the groups. Significant statistical difference was considered at p<0.05. Data are presented as mean ± SEM.

[3] = tested on: islets from GPR120 null mice; experiment: cAMP production in dispersed islet cells from GPR120 null mice; assay type: cell-based, mouse; conditions: 50 nM Exendin-4
Experimental: (§1) Mouse islets were isolated from pancreas by collagenase digestion, handpicked under microscope following multiple washing steps and dispersed to single cells using TrypLE Express (Gibco). The dispersed islet cells (20 000 cells/well) were incubated with the GPR120 agonists for 30 min in 96-well black plates (Corning) at 37°C in Krebs ringer phosphate Hepes buffer, pH 7.4, with 11 mM Glucose, 0.1% BSA and 0.5 mM 3-isobutyl-1-methylxanthine followed by addition of d2-labeled cAMP and anti-cAMP Cryptate in conjugation and lysis buffer (Cisbio). Produced cAMP was detected with homogenous time resolved fluorescence (HTRF) (λex = 340 nm, λem = 665 and 615 nm) using a Pherastar (BMG Labtech).

[4] = tested on: dispersed wt mouse islets cell; experiment: cAMP production in dispersed wild type mouse islet cells; assay type: cell-based; conditions: 50 nM Exendin-4
Experimental: as §1

O=C(O)CCc1ccc(NCc2cccc(Oc3ccccc3)c2)cc1 [GW9508]
β-arrestin-2 recruitment in Caco-2 cells (Caco-2 cells): recruited β-arrestin-2 | EC50 (mouse GPR40): 900 ± 300 nM

Exendin 9–39
Insulin secretion, exendin 9–39 alone (lean female mice): no significant effect

Exendin-4
cAMP production in islet cells from GPR120 null mice (positive control) [3]: significantly stimulate cAMP production | cAMP production in islet cells from wt mice (positive control) [4]: significantly stimulate cAMP production
